According to US9102638B2, “Amidobenzothiazoles and process for the preparation thereof” (COUNCIL OF SCIENTIFIC & INDUSTRIAL RESEARCH, priority 2011, dated 2015):

Key:
Assay type in all cases: cell-based
[1] = tested on: M14; experiment: In vitro cytotoxicity, NCI screen: M14 (Melanoma); settings: Homo sapiens; M14, Melanoma panel, NCI protocol; read-out: GI50 values (μM conc.)
Procedure: (§1) The in vitro anticancer activity studies for these amidobenzothiazoles were carried out at the National Cancer Institute, Maryland, USA.
(§2) The amidobenzothiazoles have been tested against sixty human tumor cell lines derived from nine cancer types (leukemia cancer cell line, non-small cell lung cancer cell line, colon cancer cell line, CNS cancer cell line, melanoma cancer cell line, ovarian cancer cell line, renal cancer cell line, prostate cancer cell line and breast cancer cell lines). For these compounds results are expressed in GI50 values of that particular cancer cell at micro molar (μM) concentration as per NCI protocol.

[2] = tested on: EKVX; experiment: In vitro cytotoxicity, NCI screen: EKVX (Non-small cell lung); settings: Homo sapiens, Non-small cell lung panel, NCI protocol, read-out: GI50 values (μM conc.)
Procedure: as §1, §2

[3] = tested on: U251; experiment: In vitro cytotoxicity, NCI screen: U251 (CNS); settings: Homo sapiens, U-251; U251, CNS panel, NCI protocol; read-out: GI50 values (μM conc.)
Procedure: as §1, §2

[4] = tested on: HT29; experiment: In vitro cytotoxicity, NCI screen: HT29 (Colon); settings: Homo sapiens, HT-29; HT29, Colon panel, NCI protocol; read-out: GI50 values (μM conc.)
Procedure: as §1, §2

[5] = tested on: UACC-257; experiment: In vitro cytotoxicity, NCI screen: UACC-257 (Melanoma); settings: Homo sapiens; UACC-257, Melanoma panel, NCI protocol; read-out: GI50 values (μM conc.)
Procedure: as §1, §2

[6] = tested on: HOP-92; experiment: In vitro cytotoxicity, NCI screen: HOP-92 (Non-small cell lung); settings: Homo sapiens; HOP-92, Non-small cell lung panel, NCI protocol; read-out: GI50 values (μM conc.)
Procedure: as §1, §2

[7] = tested on: leukemia cancer cell lines; experiment: In vitro activity against leukemia cancer cell lines (panel range); settings: Homo sapiens, read-out: GI50 values, range over the listed compounds and the panel
Procedure: as §1, §2

[8] = tested on: MALME-3M; experiment: In vitro cytotoxicity, NCI screen: MALME-3M (Melanoma); settings: Homo sapiens, Melanoma panel, NCI protocol, read-out: GI50 values (μM conc.)
Procedure: as §1, §2

[9] = tested on: HS 578T; experiment: In vitro cytotoxicity, NCI screen: HS 578T (Breast); settings: Homo sapiens, read-out: GI50 values (μM conc.)
Procedure: as §1, §2

[10] = tested on: RPMI-8226; experiment: In vitro cytotoxicity, NCI screen: RPMI-8226 (Leukemia); settings: Homo sapiens; RPMI-8226, Leukemia panel, NCI protocol; read-out: GI50 values (μM conc.)
Procedure: as §1, §2

[11] = tested on: NCI-H322M; experiment: In vitro cytotoxicity, NCI screen: NCI-H322M (Non-small cell lung); settings: Homo sapiens, Non-small cell lung panel, NCI protocol, read-out: GI50 values (μM conc.)
Procedure: as §1, §2

[12] = tested on: MCF7; experiment: In vitro cytotoxicity, NCI screen: MCF7 (Breast); settings: Homo sapiens; MCF7, Breast panel, NCI protocol; read-out: GI50 values (μM conc.)
Procedure: as §1, §2

[13] = tested on: SR; experiment: In vitro cytotoxicity, NCI screen: SR (Leukemia); settings: Homo sapiens, Leukemia panel, NCI protocol, read-out: GI50 values (μM conc.)
Procedure: as §1, §2

[14] = tested on: CAKI-1; experiment: In vitro cytotoxicity, NCI screen: CAKI-1 (Renal); settings: Homo sapiens; CAKI-1, Renal panel, NCI protocol; read-out: GI50 values (μM conc.)
Procedure: as §1, §2

[15] = tested on: RXF 393; experiment: In vitro cytotoxicity, NCI screen: RXF 393 (Renal); settings: Homo sapiens; RXF 393, Renal panel, NCI protocol; read-out: GI50 values (μM conc.)
Procedure: as §1, §2

[16] = tested on: OVCAR-3; experiment: In vitro cytotoxicity, NCI screen: OVCAR-3 (Ovarian); settings: Homo sapiens; OVCAR-3, Ovarian panel, NCI protocol; read-out: GI50 values (μM conc.)
Procedure: as §1, §2

[17] = tested on: OVCAR-5; experiment: In vitro cytotoxicity, NCI screen: OVCAR-5 (Ovarian); settings: Homo sapiens; OVCAR-5, Ovarian panel, NCI protocol; read-out: GI50 values (μM conc.)
Procedure: as §1, §2

[18] = tested on: BT-549; experiment: In vitro cytotoxicity, NCI screen: BT-549 (Breast); settings: Homo sapiens, read-out: GI50 values (μM conc.)
Procedure: as §1, §2

[19] = tested on: NCI-H226; experiment: In vitro cytotoxicity, NCI screen: NCI-H226 (Non-small cell lung); settings: Homo sapiens; NCI-H226, Non-small cell lung panel, NCI protocol; read-out: GI50 values (μM conc.)
Procedure: as §1, §2

[20] = tested on: NCI-H460; experiment: In vitro cytotoxicity, NCI screen: NCI-H460 (Non-small cell lung); settings: Homo sapiens; NCI-H460, Non-small cell lung panel, NCI protocol; read-out: GI50 values (μM conc.)
Procedure: as §1, §2

[21] = tested on: HOP-62; experiment: In vitro cytotoxicity, NCI screen: HOP-62 (Non-small cell lung); settings: Homo sapiens; HOP-62, Non-small cell lung panel, NCI protocol; read-out: GI50 values (μM conc.)
Procedure: as §1, §2

[22] = tested on: 786-0; experiment: In vitro cytotoxicity, NCI screen: 786-0 (Renal); settings: Homo sapiens; 786-0, Renal panel, NCI protocol; read-out: GI50 values (μM conc.)
Procedure: as §1, §2

[23] = tested on: T-47D; experiment: In vitro cytotoxicity, NCI screen: T-47D (Breast); settings: Homo sapiens, T47D, Breast panel, NCI protocol, read-out: GI50 values (μM conc.)
Procedure: as §1, §2

[24] = tested on: TK-10; experiment: In vitro cytotoxicity, NCI screen: TK-10 (Renal); settings: Homo sapiens; TK-10, Renal panel, NCI protocol; read-out: GI50 values (μM conc.)
Procedure: as §1, §2

[25] = tested on: SK-MEL-5; experiment: In vitro cytotoxicity, NCI screen: SK-MEL-5 (Melanoma); settings: Homo sapiens; SK-MEL-5, Melanoma panel, NCI protocol; read-out: GI50 values (μM conc.)
Procedure: as §1, §2

[26] = tested on: OVCAR-8; experiment: In vitro cytotoxicity, NCI screen: OVCAR-8 (Ovarian); settings: Homo sapiens; OVCAR-8, Ovarian panel, NCI protocol; read-out: GI50 values (μM conc.)
Procedure: as §1, §2

[27] = tested on: CNS cancer cell lines; experiment: In vitro activity against CNS cancer cell lines (panel range); settings: Homo sapiens, read-out: GI50 values, range over the listed compounds and the panel
Procedure: as §1, §2

[28] = tested on: SF-295; experiment: In vitro cytotoxicity, NCI screen: SF-295 (CNS); settings: Homo sapiens; SF-295, CNS panel, NCI protocol; read-out: GI50 values (μM conc.)
Procedure: as §1, §2

[29] = tested on: UACC-62; experiment: In vitro cytotoxicity, NCI screen: UACC-62 (Melanoma); settings: Homo sapiens; UACC-62, Melanoma panel, NCI protocol; read-out: GI50 values (μM conc.)
Procedure: as §1, §2

[30] = tested on: HCT-15; experiment: In vitro cytotoxicity, NCI screen: HCT-15 (Colon); settings: Homo sapiens; HCT-15, Colon panel, NCI protocol; read-out: GI50 values (μM conc.)
Procedure: as §1, §2

[31] = tested on: SW-620; experiment: In vitro cytotoxicity, NCI screen: SW-620 (Colon); settings: Homo sapiens; SW-620, Colon panel, NCI protocol; read-out: GI50 values (μM conc.)
Procedure: as §1, §2

Row | SMILES | GI50 [1] | GI50 [2] | GI50 [3] | GI50 [4] | GI50 [5] | GI50 [6] | GI50 [7] | GI50 [8] | GI50 [9] | GI50 [10] | GI50 [11] | GI50 [12] | GI50 [13] | GI50 [14] | GI50 [15] | GI50 [16] | GI50 [17] | GI50 [18] | GI50 [19] | GI50 [20] | further results
1 | COc1ccc2nc(NC(=O)COc3cc(/C=C\c4cc(OC)c(OC)c(OC)c4)ccc3OC)sc2c1 [Compound 8g, N1-(6-methoxy-1,3-benzothiazol-2-yl)-2-{2-methoxy-5-[(Z)-2-(3,4,5-trimethoxyphenyl)-1-ethenyl]phenoxy}acetamide] | 4.33 µM | 5.11 µM | 4 µM | 3.34 µM | 63 µM | 6.28 µM | 0.037 to 29.9 µM | > 100 µM | 4.15 µM | 5.43 µM | > 100 µM | 2.88 µM | 3.69 µM | 3.2 µM | 2.5 µM | 2.17 µM | 5.89 µM | 21.2 µM | 4.51 µM | 3.73 µM | GI50 [21]: 23 µM; GI50 [22]: 7.52 µM; GI50 [23]: 4.03 µM; GI50 [24]: 7.54 µM; GI50 [25]: 2.68 µM; GI50 [26]: 5.28 µM; GI50 [27]: 0.045 to 18.8 µM; GI50 [28]: 1.84 µM; GI50 [29]: 5.93 µM; GI50 [30]: 2.89 µM; GI50 [31]: 5.1 µM
2 | COc1ccc(/C=C\c2cc(OC)c(OC)c(OC)c2)cc1OCC(=O)Nc1nc2ccc(C(F)(F)F)cc2s1 [Compound 8i, N1-(6-(trifluoromethyl)-1,3-benzothiazol-2-yl)-2-{2-methoxy-5-[(Z)-2-(3,4,5-trimethoxyphenyl)-1-ethenyl]phenoxy}acetamide] | 3.58 µM | 6.25 µM | 3.67 µM | 14.9 µM | 40 µM | 2.88 µM | 0.037 to 29.9 µM | > 100 µM | 4.18 µM | 5.48 µM | 5.38 µM | 3.16 µM | 3.35 µM | 3.1 µM | 2.27 µM | 2.11 µM | 5.98 µM | 5.23 µM | 3.17 µM | 3.55 µM | GI50 [21]: 5.22 µM; GI50 [22]: 6.96 µM; GI50 [23]: 4.79 µM; GI50 [24]: 7.03 µM; GI50 [25]: 2.84 µM; GI50 [26]: 3.86 µM; GI50 [27]: 0.045 to 18.8 µM; GI50 [28]: 3.36 µM; GI50 [29]: 3.9 µM; GI50 [30]: 3.24 µM; GI50 [31]: 4.65 µM
3 | COc1ccc(/C=C/C(=O)c2cc(OC)c(OC)c(OC)c2)cc1OCC(=O)Nc1nc2ccc(OC(F)(F)F)cc2s1 [Compound 9j, N1-(6-(trifluoromethoxy)-1,3-benzothiazol-2-yl)-2-{2-methoxy-5-[(E)-3-oxo-3-(3,4,5-trimethoxyphenyl)-1-propenyl]phenoxy}acetamide] | 1.72 µM | 5.11 µM | 0.7 µM | 3.66 µM | 8.08 µM | 2.14 µM | 0.037 to 29.9 µM | 2.69 µM | 3.08 µM | 2.02 µM | 2.77 µM | 1.32 µM | 0.39 µM | 2.2 µM | 1.58 µM | 1.52 µM | 4.76 µM | 2.71 µM | 3.35 µM | 2.43 µM | GI50 [21]: 2.12 µM; GI50 [22]: 2.26 µM; GI50 [23]: 3.08 µM; GI50 [24]: 2.08 µM; GI50 [25]: 2.03 µM; GI50 [26]: 1.54 µM; GI50 [27]: 0.045 to 18.8 µM; GI50 [28]: 2.21 µM; GI50 [29]: 9.52 µM; GI50 [30]: 0.4 µM; GI50 [31]: 1.08 µM
